# Reference: patent publication US6518317B1, “Antiviral agents” (priority 1997, dated 2003)
# What was measured:
# [1] = test system: carcinogenesis caused by a two-stage carcinogenesis on skin; assay: Two-stage (DMBA/TPA) carcinogenesis on skin of mice; type: in vivo, mice of ICR strain; conditions: 2.5 mg per mouse
# Experimental: Hair on the back of mice of ICR strain (purchased from Nippon SLC; seven weeks age; female) was shaved and DMBA (dimethylbenzanthracene) as an initiator in a form of a solution in acetone was applied thereto at the dose of 50 μg/mouse.
# Thus, FIG. 5 is a graph showing the anti-carcinogenic action of the cyclopentenone in which ordinate is a carcinogenic rate while abscissa is time (weeks). In the graph, open triangles, black triangles and open circles stand for a group treated with 2.5 mg of the cyclopentenone per mouse (12 mice in total), a group treated with 0.8 mg of the cyclopentenone per mouse (11 mice in total) and a control group (12 mice in total), respectively.
# [2] = test system: 70 kd heat shock proteins; assay: Expression of 70 kd heat shock proteins in HeLa cells (SDS-PAGE and blotting); type: cell-based; set-up: key: +++: the sign “+” shows the potency of signals of the 70 kd heat shock proteins observed in the blotting the more the numbers of +, the more potent the signals; ++: the sign “+” shows the potency of signals of the 70 kd heat shock proteins observed in the blotting the more the numbers of +, the more potent the signals; the sign “+” shows the potency of signals of the 70 kd heat shock proteins observed in the blotting the more the numbers of +, the more potent the signals; The sign “±” means that the signal was very weak; conditions: six hours
# Experimental: The medium was discarded, 1 ml of 10% trichloroacetic acid was added to each of the wells and the cells were recovered by a scraper.
# The cells prepared as such were subjected to an SDS-PAGE and a blotting according to a method of Example 1 to detect the expression of 70 kd heat shock proteins.
# As a result, induction of the 70 kd heat shock proteins noted in the sections to which the cyclopentenone of from 5 μM to 40 μM was added. […] The sign “±” means that the signal was very weak.
# [3] = test system: adenovirus type 5 (Adenoid 75; ATCC VR-5); assay: Amount of viral DNA in HeLa cells, cyclopentenone before and after infection; type: cell-based; conditions: 5 μM or more
# Experimental: (6) Amount of the viral DNA was measured by the same manner as in Example 2-(3) from the HeLa cells which were treated with the cyclopentenone infected by the adenovirus type 5 (Adenoid 75; ATCC VR-5) followed by incubating by the same manner as in Example 2-(5).
# [4] = test system: Ad5 dlX [an adenovirus]; assay: Adenovirus hexon protein in HeLa cells treated with cyclopentenone before infection; type: cell-based; conditions: 10 μM or higher, six hours before infection, m.o.i. 50, 20 hours
# Experimental: After that, the cells were washed with the DMEM containing 5% of fetal bovine serum, then the DMEM containing 5% of fetal bovine serum which contained Ad5 dlX [an adenovirus; Saito, etal.; Journal ofVirology, volume 54, pages 711-719 (1985)] was added to the cells so that the cells were infected therewith and incubation was conducted for 20 hours. […] The medium was discarded, 1 ml of 10% trichloroacetic acid was added to each of the wells and the cells were recovered by a scraper.
# Then SDS-PAGE and blotting of the treated cells obtained hereinabove were conducted by the method of Example 1 to detect the expression of hexon proteins of the adenovirus. Incidentally, anti-adenovirus hexon antibody (AB 1056; manufactured by Chemicon International Inc.) was used as the primary antibody.
# [5] = test system: adenovirus of type 5 (Adenoid 75; ATCC VR-5); assay: Adenovirus hexon protein in HeLa cells, cyclopentenone added after infection; type: cell-based; conditions: 10 μM or more, 20 hours
# Experimental: (4) After HeLa cells were incubated by the same manner as in Example 2-(2), DMEM containing 5% of fetal bovine serum which contained adenovirus of type 5 (Adenoid 75; ATCC VR-5) was added to the cells without addition of the cyclopentenone whereby the cells were infected by that. […] After the incubation, detection of hexon proteins of adenovirus was conducted by the same manner as in Example 2-(2).
# [6] = test system: CEM-SS cells infected by HIV-1IIIB (CEM-3B); assay: Survival rate of HIV-infected T cells, CEM-3B; type: cell-based, human; conditions: three days
# Experimental: (§1) The cyclopentenone (1-5 μM) was added to CEM-SS cells infected by HIV-1IIIB (abbreviated as CEM-3B) or to H9 cells infected by HIV-1IIIB (abbreviated as H9-3B) and incubated for three days. In both cells, 90% or more of the cells were infected by HIV-1IIIB. Numbers of living and dead cells were counted and the survival rate of the cells was calculated therefrom.
# Thus, FIG. 3 and FIG. 4 are the graphs showing the relation between the concentration of the cyclopentenone added and the survival rate of the cells in which abscissa is the concentration (μM) of the cyclopentenone added While ordinate is the survival rate (%) of the cells after incubating for three days. FIG. 3 is the result when CEM-3B were used while FIG. 4 is the result when H9-3B were used.
# [7] = test system: HIV-1IIIB; assay: p24 antigen in supernatant liquid of CEM-3B culture; type: cell-based; conditions: three days
# Experimental: as §1
# Concentration of the p24 antigen contained in the supernatant liquid of the culture after incubation for three days in the case of Example 5-(2) was measured. The result was that the concentration of p24 decreased corresponding to the centration of the cyclopentenone added thereto whereupon the anti-HIV action was noted. In Table 10, the figures in parentheses are the ratio of each of the supernatant liquid of the cell cultures (when none of the cyclopentenone was added) to the concentration of p24 expressed in terms of %.
# [8] = test system: NIH3T3/E7-2; assay: Colony formation of HPV16 type E7-transformed cell strain NIH3T3/E7-2; type: cell-based; conditions: 5 μM
# Experimental: Each incubation was conducted in three runs.
# [9] = Single oral administration toxicity in rats; type: in vivo; conditions: single oral administration of 100 mg/kg
# [10] = test system: H9 cells; assay: Survival rate of human T cells, H9; type: cell-based; conditions: three days
compound,measurement,setting,value
"O=C1C=CC(O)C1O (stereo not drawn) [cyclopentenone, 4,5-dihydroxy-2-cyclopenten-1-one]",carcinogenic rate,"[1]; applied one hour before each TPA, within 15 weeks (1 mouse out of 12)",8.3%
same,carcinogenic rate,[1]; within and after 19 weeks (3 mice out of 12),25%
same,Amount of 70 kd of Heat Shock Proteins,[2]; 5 μM,+
same,Amount of 70 kd of Heat Shock Proteins,[2]; 10 μM,++
same,Amount of 70 kd of Heat Shock Proteins,[2]; 20 μM,+++
same,Amount of 70 kd of Heat Shock Proteins,[2]; 40 μM,+++
same,amount of the viral DNA compared with the control,[3],apparent decrease
same,amount of the hexon protein compared with the control,[4],apparently decreased
same,amount of hexon proteins compared with the control,[5],apparent decrease
same,survival rate of the cells,[6]; 3 μM,significantly decreased
same,survival rate of the cells,[6]; 5 μM,further decreased
same,Concentration of p24 in Supernatant Liquid of the cell cultures,[7]; 1 μM,232 ng/mL
same,ratio to the concentration of p24 when none of the cyclopentenone was added,[7]; 1 μM,83%
same,Concentration of p24 in Supernatant Liquid of the cell cultures,[7]; 3 μM,176 ng/mL
same,ratio to the concentration of p24 when none of the cyclopentenone was added,[7]; 3 μM,63%
same,Concentration of p24 in Supernatant Liquid of the cell cultures,[7]; 5 μM,175 ng/mL
same,ratio to the concentration of p24 when none of the cyclopentenone was added,[7]; 5 μM,63%
same,sensitivity of the cells into which E7 was introduced compared with the control cells,[8],high sensitivity
same,Numbers (average ± SD) of the Colonies,"[8]; nine days, NIH3T3/E7-2, three runs",22.3 ± 3.5
same,dead cases,[9],no dead case
same,survival rate of the cells,[10],no significant decrease
